Laboratory results published in patent publication US20100279990A1, “ANTIPROLIFERATIVE COMPOUNDS, COMPOSITIONS AND METHODS OF USE” (RAMOT AT TEL-AVIV UNIVERSITY LTD., priority 2006, published 2010).

What was measured:
[1] = system: Con-A activated naive mouse splenocytes; experiment: Con-A-induced mouse splenocyte proliferation, alamar blue staining; assay type: cell-based; conditions: Splenocyte, 48 hr, alamar blue, read-out: IC50, inhibition in cell viability
From the text: This example illustrates cell viability data obtained by separately administering different concentrations of compound (Ia), paroxetine, citalopram, and ecitalopram to Con-A activated naive mouse splenocytes. FIG. 3A depicts the comparative effect of compound (Ia), paroxetine, citalopram and ecitalopram on Con-A-induced mouse splenocyte proliferation using alamar blue staining after 48 hr. Each point represents the mean+/−SE of 5 determinations.

[2] = system: PHA activated healthy human T cells; experiment: PHA induced proliferation of healthy human lymphocytes, alamar blue; assay type: cell-based
male Balb/C mice = experiment: Acute toxicity in male Balb/C mice, ip; assay type: in vivo
Method: This example illustrates acute toxicity data derived from the treatment of male Balb/C mice with different concentrations of compound (Ia). The results are depicted in FIG. 11. Compound (Ia) was administered ip to groups of mice at doses of 10, 20 and 30 mg/kg. Sertraline was also administered to one group at 30 mg/kg. Each group of mice included five animals.
Body weight was determined up to 12 days after drug administration.

Jurkat Lymphoma cells = experiment: Viability of Jurkat Lymphoma cells, combination with Doxorubicin; assay type: cell-based; conditions: Homo sapiens, read-out: inhibition of cell viability
CXF HCT116 = experiment: Monolayer Assay, PI: CXF HCT116 (Colorectal); assay type: cell-based, human
From the text: (§1) This example illustrates cell proliferation data in the form of IC50, IC70 and IC90 values obtained by exposure of human cancer cell-lines to compound (Ia). […].

CXF HT29 = experiment: Monolayer Assay, PI: CXF HT29 (Colorectal); assay type: cell-based, human
From the text: as §1

HNXF 536L = experiment: Monolayer Assay, PI: HNXF 536L; assay type: cell-based, human
From the text: as §1

LXF 526L = experiment: Monolayer Assay, PI: LXF 526L (Lung); assay type: cell-based, human
From the text: as §1

MAXF MCF7 = experiment: Monolayer Assay, PI: MAXF MCF7 (Breast); assay type: cell-based, human
From the text: as §1

MEXF 514L = experiment: Monolayer Assay, PI: MEXF 514L (Melanoma); assay type: cell-based, human
From the text: as §1

PRXF 22RV1 = experiment: Monolayer Assay, PI: PRXF 22RV1 (Prostate); assay type: cell-based, human
From the text: as §1

RXF 1781L = experiment: Monolayer Assay, PI: RXF 1781L (Renal); assay type: cell-based, human
From the text: as §1

RXF 393NL = experiment: Monolayer Assay, PI: RXF 393NL (Renal); assay type: cell-based, human
From the text: as §1

XCL A431 = experiment: Monolayer Assay, PI: XCL A431; assay type: cell-based, human
From the text: as §1

[3] = system: human colon carcinoma cells (HT29)

## CN[C@H]1CC[C@@H](c2ccc(Cl)c(Cl)c2)c2ccc(C#CCCCO)cc21 [compound (Ia), (1S-cis)-4-(3,4-dichlorophenyl)-7-(5-hydroxy-1-pentyn-1-yl)-1,2,3,4-tetrahydro-N-methyl-1-naphthalenamine hydroiodide]
[1]
  IC50: 3.9 µM
[2]
  potency relative to sertraline: about 3 times
[2]; T-cell, 48 hr, alamar blue
  IC50: 9.8 µM
Male Balb/C mice; ip 10, 20 and 30 mg/kg, observed 4 h and after 24 h
  behavioral changes: none of the animals showed any observed change in behavior
Male Balb/C mice; ip 10, 20 and 30 mg/kg, over 12 days
  changes in food intake or body weight: none of the animals exhibited changes in food intake or body weight
Male Balb/C mice; ip, up to 30 mg/kg
  tolerability of acute ip administration: well tolerated
Jurkat Lymphoma cells; 5 μM alone
  cytotoxicity at 5 µM: 18%
Jurkat Lymphoma cells; 10 μM alone
  cytotoxicity at 10 µM: 59.5%
CXF HCT116; 2.3 μg/ml
  Test/Control (%): 93%
  Test/Control activity class: − (− (T/C = 50))
CXF HCT116; 7.5 μg/ml
  Test/Control (%): 4%
  Test/Control activity class: +++ (+++ (T/C < 10))
CXF HCT116; 23. μg/ml
  Test/Control (%): 2%
  Test/Control activity class: +++ (+++ (T/C < 10))
CXF HCT116; 75. μg/ml
  Test/Control (%): 1%
  Test/Control activity class: +++ (+++ (T/C < 10))
CXF HCT116; .75 μg/ml
  Test/Control (%): 99%
  Test/Control activity class: − (− (T/C = 50))
CXF HT29; 2.3 μg/ml
  Test/Control (%): 100%
  Test/Control activity class: − (− (T/C = 50))
CXF HT29; 7.5 μg/ml
  Test/Control (%): 3%
  Test/Control activity class: +++ (+++ (T/C < 10))
CXF HT29; 23. μg/ml
  Test/Control (%): 1%
  Test/Control activity class: +++ (+++ (T/C < 10))
CXF HT29; 75. μg/ml
  Test/Control (%): 1%
  Test/Control activity class: +++ (+++ (T/C < 10))
CXF HT29; .75 μg/ml
  Test/Control (%): 99%
  Test/Control activity class: − (− (T/C = 50))
HNXF 536L; 2.3 μg/ml
  Test/Control (%): 102%
  Test/Control activity class: − (− (T/C = 50))
HNXF 536L; 7.5 μg/ml
  Test/Control (%): 97%
  Test/Control activity class: − (− (T/C = 50))
HNXF 536L; 23. μg/ml
  Test/Control (%): 4%
  Test/Control activity class: +++ (+++ (T/C < 10))
HNXF 536L; 75. μg/ml
  Test/Control (%): 3%
  Test/Control activity class: +++ (+++ (T/C < 10))
HNXF 536L; .75 μg/ml
  Test/Control (%): 112%
  Test/Control activity class: − (− (T/C = 50))
LXF 526L; 2.3 μg/ml
  Test/Control (%): 81%
  Test/Control activity class: − (− (T/C = 50))
LXF 526L; 7.5 μg/ml
  Test/Control (%): 6%
  Test/Control activity class: +++ (+++ (T/C < 10))
LXF 526L; 23. μg/ml
  Test/Control (%): 5%
  Test/Control activity class: +++ (+++ (T/C < 10))
LXF 526L; 75. μg/ml
  Test/Control (%): 4%
  Test/Control activity class: +++ (+++ (T/C < 10))
LXF 526L; .75 μg/ml
  Test/Control (%): 92%
  Test/Control activity class: − (− (T/C = 50))
MAXF MCF7; 2.3 μg/ml
  Test/Control (%): 67%
  Test/Control activity class: − (− (T/C = 50))
MAXF MCF7; 7.5 μg/ml
  Test/Control (%): 5%
  Test/Control activity class: +++ (+++ (T/C < 10))
MAXF MCF7; 23. μg/ml
  Test/Control (%): 2%
  Test/Control activity class: +++ (+++ (T/C < 10))
MAXF MCF7; 75. μg/ml
  Test/Control (%): 3%
  Test/Control activity class: +++ (+++ (T/C < 10))
MAXF MCF7; .75 μg/ml
  Test/Control (%): 93%
  Test/Control activity class: − (− (T/C = 50))
MEXF 514L; 2.3 μg/ml
  Test/Control (%): 90%
  Test/Control activity class: − (− (T/C = 50))
MEXF 514L; 7.5 μg/ml
  Test/Control (%): 3%
  Test/Control activity class: +++ (+++ (T/C < 10))
MEXF 514L; 23. μg/ml
  Test/Control (%): 2%
  Test/Control activity class: +++ (+++ (T/C < 10))
MEXF 514L; 75. μg/ml
  Test/Control (%): 3%
  Test/Control activity class: +++ (+++ (T/C < 10))
MEXF 514L; .75 μg/ml
  Test/Control (%): 108%
  Test/Control activity class: − (− (T/C = 50))
PRXF 22RV1; 2.3 μg/ml
  Test/Control (%): 80%
  Test/Control activity class: − (− (T/C = 50))
PRXF 22RV1; 7.5 μg/ml
  Test/Control (%): 24%
  Test/Control activity class: ++ (++ (10 <= T/C < 30))
PRXF 22RV1; 23. μg/ml
  Test/Control (%): 2%
  Test/Control activity class: +++ (+++ (T/C < 10))
PRXF 22RV1; 75. μg/ml
  Test/Control (%): 2%
  Test/Control activity class: +++ (+++ (T/C < 10))
PRXF 22RV1; .75 μg/ml
  Test/Control (%): 85%
  Test/Control activity class: − (− (T/C = 50))
RXF 1781L; 2.3 μg/ml
  Test/Control (%): 76%
  Test/Control activity class: − (− (T/C = 50))
RXF 1781L; 7.5 μg/ml
  Test/Control (%): 4%
  Test/Control activity class: +++ (+++ (T/C < 10))
RXF 1781L; 23. μg/ml
  Test/Control (%): 3%
  Test/Control activity class: +++ (+++ (T/C < 10))
RXF 1781L; 75. μg/ml
  Test/Control (%): 3%
  Test/Control activity class: +++ (+++ (T/C < 10))
RXF 1781L; .75 μg/ml
  Test/Control (%): 96%
  Test/Control activity class: − (− (T/C = 50))
RXF 393NL; 2.3 μg/ml
  Test/Control (%): 91%
  Test/Control activity class: − (− (T/C = 50))
RXF 393NL; 7.5 μg/ml
  Test/Control (%): 5%
  Test/Control activity class: +++ (+++ (T/C < 10))
RXF 393NL; 23. μg/ml
  Test/Control (%): 1%
  Test/Control activity class: +++ (+++ (T/C < 10))
RXF 393NL; 75. μg/ml
  Test/Control (%): 1%
  Test/Control activity class: +++ (+++ (T/C < 10))
RXF 393NL; .75 μg/ml
  Test/Control (%): 96%
  Test/Control activity class: − (− (T/C = 50))
XCL A431; 2.3 μg/ml
  Test/Control (%): 94%
  Test/Control activity class: − (− (T/C = 50))
XCL A431; 7.5 μg/ml
  Test/Control (%): 6%
  Test/Control activity class: +++ (+++ (T/C < 10))
XCL A431; 23. μg/ml
  Test/Control (%): 3%
  Test/Control activity class: +++ (+++ (T/C < 10))
XCL A431; 75. μg/ml
  Test/Control (%): 2%
  Test/Control activity class: +++ (+++ (T/C < 10))
XCL A431; .75 μg/ml
  Test/Control (%): 100%
  Test/Control activity class: − (− (T/C = 50))
[3]; 10-30 μM, FIG. 2A
  potency compared with paroxetine: higher potency than paroxetine
[3]; equimolar doses, FIG. 2B
  potency compared with paroxetine and fluoxetine: significantly more potent than paroxetine and fluoxetine
